Measured values: ChEMBL document CHEMBL3868610, “Novel bicyclo[3.1.0]hexane analogs as antagonists of metabotropic glutamate 2/3 receptors for the treatment of depression” (Bioorg Med Chem Lett, 2016)
Converted amounts (≈) assume the structure as drawn. The source made the active and inactive calls. The rule behind the calls is not given here.

Legend:
[1] = Tmax in rat at 10 mg/kg, ip; assay type: ADME, organism-based; details: in vivo
[2] = biological target: T1, Metabotropic glutamate receptor 4 (Homo sapiens, UniProt Q14833); experiment: Antagonist activity at recombinant human mGlu4 receptor expressed in hamster AV12 cells co-expressing human EAAT1/Galpha1s assessed as inhibition of Ca2+ flux by Fluo-3-AM dye based FLIPR assay; assay type: functional, cell-based
T1 sequence (Q14833 whole entry): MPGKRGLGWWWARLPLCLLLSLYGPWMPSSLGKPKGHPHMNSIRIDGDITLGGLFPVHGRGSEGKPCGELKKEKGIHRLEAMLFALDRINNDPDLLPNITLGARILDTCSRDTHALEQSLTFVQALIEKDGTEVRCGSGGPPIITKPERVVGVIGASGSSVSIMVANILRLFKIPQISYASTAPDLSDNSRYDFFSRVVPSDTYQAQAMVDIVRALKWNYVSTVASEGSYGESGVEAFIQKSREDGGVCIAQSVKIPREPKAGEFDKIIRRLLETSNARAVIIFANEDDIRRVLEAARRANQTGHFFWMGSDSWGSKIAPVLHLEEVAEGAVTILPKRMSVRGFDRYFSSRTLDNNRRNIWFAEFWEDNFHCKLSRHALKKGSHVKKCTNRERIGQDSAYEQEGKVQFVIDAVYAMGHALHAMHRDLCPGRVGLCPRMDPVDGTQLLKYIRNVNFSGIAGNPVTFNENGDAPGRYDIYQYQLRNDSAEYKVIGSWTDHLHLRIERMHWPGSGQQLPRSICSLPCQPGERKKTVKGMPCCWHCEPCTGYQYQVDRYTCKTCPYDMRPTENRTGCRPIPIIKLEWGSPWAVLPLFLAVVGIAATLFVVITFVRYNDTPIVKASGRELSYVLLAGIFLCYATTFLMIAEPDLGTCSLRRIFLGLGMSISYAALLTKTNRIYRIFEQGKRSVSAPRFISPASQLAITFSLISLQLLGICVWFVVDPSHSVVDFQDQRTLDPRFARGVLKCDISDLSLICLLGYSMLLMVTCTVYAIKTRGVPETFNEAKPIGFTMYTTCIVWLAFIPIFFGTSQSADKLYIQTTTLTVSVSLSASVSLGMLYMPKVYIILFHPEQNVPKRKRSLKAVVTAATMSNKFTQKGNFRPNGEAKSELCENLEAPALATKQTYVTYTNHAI

CYP2C9 = CYP2C9 (Homo sapiens, UniProt P11712); experiment: Inhibition of human CYP2C9 at 10 uM; assay type: ADME
Sequence of CYP2C9 (P11712 whole entry): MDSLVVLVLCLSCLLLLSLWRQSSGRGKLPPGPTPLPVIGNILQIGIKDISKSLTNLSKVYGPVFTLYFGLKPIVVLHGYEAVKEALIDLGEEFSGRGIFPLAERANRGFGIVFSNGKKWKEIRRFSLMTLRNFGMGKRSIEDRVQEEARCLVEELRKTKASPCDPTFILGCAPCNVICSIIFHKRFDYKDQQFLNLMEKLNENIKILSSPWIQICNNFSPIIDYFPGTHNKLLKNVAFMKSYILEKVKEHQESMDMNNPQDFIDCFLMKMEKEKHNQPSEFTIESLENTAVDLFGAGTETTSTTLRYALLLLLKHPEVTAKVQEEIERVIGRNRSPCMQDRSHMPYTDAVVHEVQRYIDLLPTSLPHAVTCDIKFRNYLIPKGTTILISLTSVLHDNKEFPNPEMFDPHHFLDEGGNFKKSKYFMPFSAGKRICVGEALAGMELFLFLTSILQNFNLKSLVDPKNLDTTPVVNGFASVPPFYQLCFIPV

[3] = biological target: Metabotropic glutamate receptor 3 (Homo sapiens, UniProt Q14832); experiment: Agonist activity at recombinant human mGlu3 receptor expressed in hamster AV12 cells co-expressing human EAAT1 assessed as increase in forskolin-stimulated cAMP formation up to 25 uM after 20 mins by HTRF assay; assay type: functional, cell-based
Rattus norvegicus = experiment: Toxicity in rat assessed as increase in locomotive activity at 3 to 10 mg/kg, ip; assay type: organism-based; details: in vivo
[4] = biological target: Voltage-gated inwardly rectifying potassium channel KCNH2 (Homo sapiens, UniProt Q12809); experiment: Displacement of [3H]-Astemizole from human ERG by membrane binding assay
CYP2D6 = CYP2D6 (Homo sapiens, UniProt P10635); experiment: Inhibition of human CYP2D6 at 10 uM; assay type: ADME
Sequence of CYP2D6 (P10635 whole entry): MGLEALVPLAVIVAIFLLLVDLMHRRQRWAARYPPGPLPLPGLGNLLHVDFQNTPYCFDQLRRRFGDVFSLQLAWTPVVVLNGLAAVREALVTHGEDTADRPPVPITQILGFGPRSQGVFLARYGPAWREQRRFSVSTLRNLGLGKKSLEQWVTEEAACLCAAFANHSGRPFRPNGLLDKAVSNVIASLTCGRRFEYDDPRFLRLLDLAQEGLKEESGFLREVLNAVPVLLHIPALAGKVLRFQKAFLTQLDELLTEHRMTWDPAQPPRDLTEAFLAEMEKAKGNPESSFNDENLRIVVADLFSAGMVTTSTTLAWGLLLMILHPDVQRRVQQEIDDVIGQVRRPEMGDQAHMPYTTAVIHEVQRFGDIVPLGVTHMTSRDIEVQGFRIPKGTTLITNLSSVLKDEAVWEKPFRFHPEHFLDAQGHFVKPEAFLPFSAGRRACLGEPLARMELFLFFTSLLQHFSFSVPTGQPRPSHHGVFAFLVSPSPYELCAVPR

[5] = Antidepressant activity in rat EEG model assessed as accumulated wake time at 10 mg/kg, ip measured over 7 hrs relative to control; assay type: functional, organism-based
[6] = biological target: Metabotropic glutamate receptor 1 (Homo sapiens, UniProt Q13255); experiment: Agonist activity at recombinant human mGlu1 receptor expressed in hamster AV12 cells co-expressing human EAAT1/Galpha1s assessed as increase in Ca2+ flux by Fluo-3-AM dye based FLIPR assay; assay type: functional, cell-based
[7] = biological target: Metabotropic glutamate receptor 5 (Homo sapiens, UniProt P41594); experiment: Antagonist activity at recombinant human mGlu5 receptor expressed in hamster AV12 cells coexpressing human EAAT1/Galpha1s assessed as inhibition of Ca2+ flux by Fluo-3-AM dye based FLIPR assay; assay type: functional, cell-based
Sequence of Metabotropic glutamate receptor 5 (P41594 whole entry): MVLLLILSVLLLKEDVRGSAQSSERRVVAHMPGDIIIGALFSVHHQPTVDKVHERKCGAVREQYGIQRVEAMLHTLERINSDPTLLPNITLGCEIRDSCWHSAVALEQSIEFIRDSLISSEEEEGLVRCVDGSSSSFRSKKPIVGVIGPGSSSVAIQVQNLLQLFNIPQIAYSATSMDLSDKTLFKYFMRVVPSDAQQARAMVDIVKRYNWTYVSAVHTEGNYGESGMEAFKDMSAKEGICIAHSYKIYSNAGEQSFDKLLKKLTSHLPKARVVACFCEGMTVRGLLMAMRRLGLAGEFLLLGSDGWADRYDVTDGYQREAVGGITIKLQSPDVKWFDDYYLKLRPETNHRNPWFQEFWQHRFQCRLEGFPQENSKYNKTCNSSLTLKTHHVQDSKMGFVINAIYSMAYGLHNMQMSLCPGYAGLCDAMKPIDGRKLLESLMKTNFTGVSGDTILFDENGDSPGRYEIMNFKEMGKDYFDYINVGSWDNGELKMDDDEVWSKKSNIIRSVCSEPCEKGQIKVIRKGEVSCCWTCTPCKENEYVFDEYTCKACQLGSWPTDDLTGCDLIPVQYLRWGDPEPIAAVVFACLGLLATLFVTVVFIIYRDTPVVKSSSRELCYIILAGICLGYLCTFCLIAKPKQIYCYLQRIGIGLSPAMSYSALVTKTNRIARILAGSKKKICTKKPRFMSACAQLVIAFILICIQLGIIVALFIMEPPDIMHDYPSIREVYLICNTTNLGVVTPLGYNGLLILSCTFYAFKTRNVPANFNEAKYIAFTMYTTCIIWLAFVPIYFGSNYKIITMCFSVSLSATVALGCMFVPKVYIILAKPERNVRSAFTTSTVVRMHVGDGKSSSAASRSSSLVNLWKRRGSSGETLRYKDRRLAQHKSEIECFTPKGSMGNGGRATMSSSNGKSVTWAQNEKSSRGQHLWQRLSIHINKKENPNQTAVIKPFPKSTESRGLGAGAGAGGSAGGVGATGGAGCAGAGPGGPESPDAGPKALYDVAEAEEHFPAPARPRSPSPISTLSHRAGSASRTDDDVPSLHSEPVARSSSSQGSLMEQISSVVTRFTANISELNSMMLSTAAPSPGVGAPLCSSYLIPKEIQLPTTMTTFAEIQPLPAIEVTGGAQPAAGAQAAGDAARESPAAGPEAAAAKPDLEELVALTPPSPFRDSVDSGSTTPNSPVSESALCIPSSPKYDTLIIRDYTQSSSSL

[8] = Unbound fraction in monkey plasma at 1 uM; assay type: ADME, cell-free, Macaca mulatta; details: rhesus monkey
[9] = Aqueous solubility of compound at pH 7.4; assay type: physicochemical; details: aqueous medium
[10] = biological target: T2, Metabotropic glutamate receptor 2 (Homo sapiens, UniProt Q14416); experiment: Antagonist activity at recombinant human mGlu2 receptor expressed in hamster AV12 cells assessed as inhibition of DCG-4-inhibited forskolin-stimulated cAMP formation up to 25 uM after 20 min by HTRF assay relative to control; assay type: functional, cell-based
[11] = AUC (0 to 24 hrs) in rat at 5 mg/kg, po; assay type: ADME, organism-based; set-up: time < 24 hr, dose 5 mg/kg, route oral; details: in vivo
CYP3A4 = CYP3A4 (Homo sapiens, UniProt P08684); experiment: Inhibition of human CYP3A4 at 10 uM; assay type: ADME
Sequence of CYP3A4 (P08684 whole entry): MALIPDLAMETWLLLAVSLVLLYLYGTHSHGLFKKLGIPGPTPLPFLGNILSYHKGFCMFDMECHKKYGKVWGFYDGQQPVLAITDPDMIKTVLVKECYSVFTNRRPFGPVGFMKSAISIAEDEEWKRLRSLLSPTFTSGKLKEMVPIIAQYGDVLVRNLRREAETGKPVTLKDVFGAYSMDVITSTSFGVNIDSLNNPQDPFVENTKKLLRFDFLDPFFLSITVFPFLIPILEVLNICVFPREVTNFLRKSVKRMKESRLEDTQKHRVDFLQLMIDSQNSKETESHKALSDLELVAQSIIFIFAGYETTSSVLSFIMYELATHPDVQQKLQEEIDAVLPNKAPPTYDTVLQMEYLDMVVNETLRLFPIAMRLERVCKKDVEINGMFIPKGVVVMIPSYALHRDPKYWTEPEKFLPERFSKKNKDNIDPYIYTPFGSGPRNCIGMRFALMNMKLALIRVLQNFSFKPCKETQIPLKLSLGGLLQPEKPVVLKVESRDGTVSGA

[12] = Plasma concentration in NIH Swiss Webster mouse at 3 mg/kg, ip at 30 mins; assay type: ADME, organism-based
[13] = biological target: T1, Metabotropic glutamate receptor 4; experiment: Agonist activity at recombinant human mGlu4 receptor expressed in hamster AV12 cells co-expressing human EAAT1/Galpha1s assessed as increase in Ca2+ flux by Fluo-3-AM dye based FLIPR assay; assay type: functional, cell-based
[14] = Volume of distribution at steady state in rat at 1 mg/kg, iv; assay type: ADME, organism-based; details: in vivo, read-out: Vdss
[15] = biological target: T2, Metabotropic glutamate receptor 2; experiment: Displacement of [3H]-LY459477 from human mGlu2 receptor expressed in hamster AV12 cell membranes co-expressing human EAAT1 after 90 mins by liquid scintillation counting method
Target sequence in this assay (Q14416 whole entry): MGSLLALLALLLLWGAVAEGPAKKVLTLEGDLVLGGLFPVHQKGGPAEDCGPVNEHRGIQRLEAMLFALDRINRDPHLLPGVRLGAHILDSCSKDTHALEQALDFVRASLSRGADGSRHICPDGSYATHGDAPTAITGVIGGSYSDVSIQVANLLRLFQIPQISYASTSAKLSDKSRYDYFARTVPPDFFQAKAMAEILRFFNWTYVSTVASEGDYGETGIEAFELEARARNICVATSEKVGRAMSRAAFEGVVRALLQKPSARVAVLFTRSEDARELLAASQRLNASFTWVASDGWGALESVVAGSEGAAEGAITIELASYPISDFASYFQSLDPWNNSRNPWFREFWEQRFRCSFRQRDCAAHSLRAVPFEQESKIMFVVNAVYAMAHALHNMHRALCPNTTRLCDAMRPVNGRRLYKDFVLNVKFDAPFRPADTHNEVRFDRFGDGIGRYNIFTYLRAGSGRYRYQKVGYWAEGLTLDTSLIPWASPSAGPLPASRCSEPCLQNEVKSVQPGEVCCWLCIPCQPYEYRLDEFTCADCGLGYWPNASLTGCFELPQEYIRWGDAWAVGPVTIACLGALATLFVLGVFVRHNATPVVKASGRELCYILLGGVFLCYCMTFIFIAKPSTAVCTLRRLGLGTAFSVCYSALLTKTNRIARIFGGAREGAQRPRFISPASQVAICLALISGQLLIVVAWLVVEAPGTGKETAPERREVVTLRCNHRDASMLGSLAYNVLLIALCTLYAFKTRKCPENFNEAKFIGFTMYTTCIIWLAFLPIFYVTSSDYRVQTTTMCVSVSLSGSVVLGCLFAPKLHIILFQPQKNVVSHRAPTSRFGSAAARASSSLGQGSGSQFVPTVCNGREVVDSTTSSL

N[C@]1(C(=O)O)[C@@H]2[C@@H](C(=O)O)[C@@H]2[C@H](O)[C@H]1OCc1ccc(Cl)c(Cl)c1
Tmax [1]: 22.8 min | IC50 [2]: > 12.5 µM | inhibition at 10 µM (CYP2C9): < 5% | EC50 [3]: > 25 µM | Activity (Rattus norvegicus): Non-Toxic | Ki [4]: > 100 µM | inhibition at 10 µM (CYP2D6): < 5% | TIME [5]: 0.683 h | EC50 [6]: > 25 µM | IC50 [7]: > 12.5 µM | fraction unbound at 1 µM [8]: > 0.4 | solubility [9]: 778 µg/mL (≈ 2070 µM) | inhibition [10]: Active | AUC [11]: 1.783 µM·h | inhibition at 10 µM (CYP3A4): < 5% | concentration at 0.5 h [12]: 16.5 µM | EC50 [13]: > 25 µM | Vd [14]: 0.589 L/kg | Ki [15]: 0.0201 µM
